Source: patent publication US20130183239A1, “ISOTOPIC CARBON CHOLINE ANALOGS” (IMPERIAL COLLEGE, priority 2010, published 2013)

Key:
[1] = mouse, in vivo
Description: ^11C-choline, ^11C-D4-choline (˜18.5 MBq) and ^18F-D4-choline (˜3.7 MBq) were each injected via the tail vein of anaesthetized BALB/c nude mice. The mice were maintained under anesthesia and sacrificed by exsanguination via cardiac puncture at 2, 15, 30 or 60 min post radiotracer injection to obtain blood, plasma, heart, lung, liver, kidney and muscle. Tissue radioactivity was determined on a gamma counter (Cobra II Auto-Gamma counter, Packard Biosciences Co, Pangbourne, UK) and decay corrected. Data were expressed as percent injected dose per gram of tissue.
Time course biodistribution was performed in non-tumor-bearing male nude mice with ^11C-choline, ^11C-D4-choline and ^18F-D4-choline tracers.

HCT116 tumors = conditions: mouse, in vivo
Description: Radiolabeled metabolites from plasma and tissues were quantified using a method adapted from Smith G, Zhao Y, Leyton J, et al. Radiosynthesis and pre-clinical evaluation of [(18)F]fluoro-[1,2-(2)H(4)]choline. Nucl Med Biol. 2011; 38:39-51. Briefly, tumor-bearing mice under terminal anaesthesia were administered a bolus i.v. injection of one of the following radiotracers: ^11C-choline, ^11C-D4-choline (˜18.5 MBq) or ^18F-D4-choline (˜3.7 MBq), and sacrificed by exsanguination via cardiac puncture at 2, 15, 30 or 60 min post radiotracer injection. For automated radiosynthesis methodology, see Example 22. Tumor, kidney and liver samples were immediately snap-frozen in liquid nitrogen. Aliquots of heparinized blood were rapidly centrifuged (14000 g, 5 min, 4° C.) to obtain plasma. Plasma samples were subsequently snap-frozen in liquid nitrogen and kept on dry ice prior to analysis.
For analysis, samples were thawed and kept at 4° C. immediately before use. To ice cold plasma (200 μl) was added ice cold methanol (1.5 mL) and the resulting suspension centrifuged (14000 g; 4° C.; 3 min). The supernatant was then decanted and evaporated to dryness on a rotary evaporator (bath temperature, 40° C.), then resuspended in HPLC mobile phase (Solvent A: acetonitrile/water/ethanol/acetic acid/1.0 M ammonium acetate/0.1 M sodium phosphate [800/127/68/2/3/10]; 1.1 mL). Samples were filtered through a hydrophilic syringe filter (0.2 μm filter; Millex PTFE filter, Millipore, Mass., USA) and the sample (˜1 mL) then injected via a 1 mL sample loop onto the HPLC for analysis. Tissues were homogenized in ice-cold methanol (1.5 mL) using an Ultra-Turrax T-25 homogenizer (IKA Werke GmbH and Co. KG, Staufen, Germany) and subsequently treated as per plasma samples.
Samples were analyzed on an Agilent 1100 series HPLC system (Agilent Technologies, Santa Clara, Calif., USA), configured as described above, using the method of Leyton J, Smith G, Zhao Y, et al. [18F]fluoromethyl-[1, 2-2H4]-choline: a novel radiotracer for imaging choline metabolism in tumors by positron emission tomography. Cancer Res. 2009; 69:7721-7728. A μBondapak C18 HPLC column (Waters, Milford, Mass., USA; […]), stationary phase and a mobile phase comprising of Solvent A (vide supra) and Solvent B (acetonitrile/water/ethanol/acetic acid/1.0 M ammonium acetate/0.1 M sodium phosphate (400/400/68/44/88/10)), delivered at a flow rate of 3 mL/min were used for analyte separation. The gradient was set as follows: 0% B for 5 min; 0% to 100% B in 10 min; 100% B for 0.5 min; 100% to 0% B in 2 min; 0% B for 2.5 min.
^11C-choline, ^11C-D4-choline and ^18F-D4-choline metabolism were measured in HCT116 tumors (FIG. 22).

[2] = test system: malignant melanoma A375 tumors; parameters: AUC: unit not given beside the values
Description: Dynamic ^11C-choline, ^11C-D4-choline and ^18F-D4-choline imaging scans were carried out on a dedicated small animal PET scanner (Siemens Inveon PET module, Siemens Medical Solutions USA, Inc., Malvem, Pa., USA) following a bolus i.v. injection in tumor-bearing mice of either ˜3.7 MBq for ^18F studies, or ˜18.5 MBq for ^11C. Dynamic scans were acquired in list mode format over 60 min. The acquired data were then sorted into 0.5 mm sinogram bins and 19 time frames for image reconstruction (4×15 s, 4×60 s, and 11×300 s), which was done by filtered back projection. For input function analysis, data were sorted into 25 time frames for image reconstruction (8×5 s, 1×20 s, 4×40 s, 1×80 s, and 11×300 s). The Siemens Inveon Research Workplace software was used for visualization of radiotracer uptake in the tumor; 30 to 60 min cumulative images of the dynamic data were employed to define 3-dimensional (3D) regions of interest (ROIs). Arterial input function was estimated as follows: a single voxel 3D ROI was manually drawn in the center of the heart cavity using 2 to 5 min cumulative images. Care was taken to minimize ROI overlap with the myocardium. The count densities were averaged for all ROIs at each time point to obtain a time versus radioactivity curve (TAC). Tumor TACs were normalized to injected dose, measured by a VDC-304 dose calibrator (Veenstra Instruments, Joure, The Netherlands), and expressed as percentage injected dose per mL tissue. The area under the TAC, calculated as the integral of % ID/mL from 0-60 min, and the normalized uptake of radiotracer at 60 min (% ID/mL60) were also used for comparisons.
A 2-tissue irreversible compartmental model was employed to fit the TACs, as has been previously established for ^11C-choline (Kenny L M, Contractor K B, Hinz R, et al. Reproducibility of [11C]choline-positron emission tomography and effect of trastuzumab. Clin Cancer Res. Aug. 15 2010; 16(16):4236-4245; and Sutinen E, Nurmi M, Roivainen A, et al. Kinetics of [(11)C]choline uptake in prostate cancer: a PET study. Eur J Nucl Med Mol. Imaging. March 2004; 31(3):317-324). An estimate of the whole blood TAC (wbTAC(t)) was derived from the PET image itself, as described above. […] Therefore it was fitted with a sum of 3 exponentials from the peak on and the fitted function was used as input function in the kinetic modeling (after metabolite correction, see below). […] The pf values were fitted to a sum of two exponentials with the constraint pf(t=0)=1 to obtain the function pf(t). The parent whole blood TAC wbTACPAR(t) was then computed by multiplying wbTAC(t) and pf(t) and used as input function to estimate the parameters K1 (mL/cm^3/min), k2 (1/min), k3 (1/min) and Vb (unitless). The steady state net irreversible uptake rate constant Ki (mL/cm^3/min) was calculated from the estimated microparameters as K1k3/(k2+k3).

[3] = mouse, in vivo, iv
[4] = A375 tumors, 2-tissue irreversible model

Compound: [2H]C([2H])(O)C([2H])([2H])[N+](C)(C)C[18F] [[^18F]D4-FCH, [^18F]fluoromethyl-[1,2-^2H4]-choline]
- increase in kidney retention compared to 11C-choline [1]: 3.3 fold
- urinary excretion [1]: trend towards increased urinary excretion
- tumor betaine radioactivity (HCT116 tumors): 14.0±3.0%
- tumor radioactivity corresponding to phosphocholine (HCT116 tumors): 45.1±3.2%
- higher un-metabolized parent tracer in tumor compared to 11C-D4-choline (HCT116 tumors; 1 h): 4.0 fold
- higher un-metabolized parent tracer in tumor compared to 11C-choline (HCT116 tumors; 1 h): 2.7 fold
- K1′ [2, 4]: 0.111 ± 0.021
- Ki [2, 4]: 0.006 ± 0.002 mL/cm^3/min
- k3 [2, 4]: 0.030 ± 0.008 min⁻¹
- AUC ([2]; mouse, in vivo): 107.3 ± 7.7
- NUV60 ([2]; mouse, in vivo): 1.71 ± 0.14 % ID/mL
- conversion to betaine metabolite in plasma [3]: ~40%
